Measured values: PMC5352749, “Novel insights into biosynthesis and uptake of rhamnolipids and their precursors” (Applied Microbiology and Biotechnology, 2016)

Experiments:
RhlB = biological target: T1, RhlB (Pseudomonas aeruginosa, UniProt Q9HYD1); assay: HPLC-UV of mono-rhamnolipids formed by recombinant P. putida fed HAA; assay type: cell-based; conditions: HAA-containing conditioned LB medium (congener mixture, C10-C10 quantified); 30 °C, 24 h; cellular dTDP-L-rhamnose as donor
T1 construct: full-length untagged gene in pVLT33 (native RBS), expressed alone in P. putida KT2440

RhlC = biological target: T2, RhlC (Pseudomonas aeruginosa, UniProt Q9I4K5); assay: HPLC-UV of di-rhamnolipids formed by recombinant P. putida fed mono-rhamnolipids; assay type: cell-based; conditions: mono-rhamnolipid conditioned LB medium (congener mixture, C10-C10 predominant and quantified); 30 °C, 24 h; cellular dTDP-L-rhamnose as donor
T2 construct: full-length untagged gene in pVLT33 (native RBS), expressed alone in P. putida KT2440
T2 sequence (Q9I4K5 entry or part of it): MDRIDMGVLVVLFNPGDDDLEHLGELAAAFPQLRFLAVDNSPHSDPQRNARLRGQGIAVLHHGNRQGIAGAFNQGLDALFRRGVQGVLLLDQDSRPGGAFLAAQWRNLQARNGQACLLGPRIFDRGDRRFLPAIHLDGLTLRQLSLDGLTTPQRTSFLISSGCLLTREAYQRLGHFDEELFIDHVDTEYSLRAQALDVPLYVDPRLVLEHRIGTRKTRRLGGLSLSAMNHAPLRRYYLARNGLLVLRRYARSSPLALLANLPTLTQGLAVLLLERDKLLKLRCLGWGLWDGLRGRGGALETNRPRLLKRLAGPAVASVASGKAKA

T1 sequence (Q9HYD1 entry or part of it): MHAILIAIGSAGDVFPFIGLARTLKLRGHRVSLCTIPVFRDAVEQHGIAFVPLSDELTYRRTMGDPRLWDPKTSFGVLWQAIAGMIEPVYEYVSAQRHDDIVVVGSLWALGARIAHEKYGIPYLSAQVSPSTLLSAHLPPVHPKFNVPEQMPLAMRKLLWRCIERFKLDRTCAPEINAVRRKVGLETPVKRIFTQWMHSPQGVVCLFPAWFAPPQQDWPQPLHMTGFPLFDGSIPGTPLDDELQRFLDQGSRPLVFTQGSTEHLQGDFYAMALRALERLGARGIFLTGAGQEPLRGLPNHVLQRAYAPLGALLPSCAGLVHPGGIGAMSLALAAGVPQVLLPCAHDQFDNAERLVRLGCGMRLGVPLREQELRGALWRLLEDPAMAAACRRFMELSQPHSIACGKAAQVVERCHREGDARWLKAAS

Question: For CCCCCCCC(O)CC(=O)OC(CCCCCCC)CC(=O)O (centres unmarked) [C10-C10 (HAA)], which “HPLC-UV of mono-rhamnolipids formed by recombinant P. putida fed HAA” value (RhlB) is on record?
Answer: Its value is “HAAs synthesized by P. putida and provided in the form of the conditioned medium serve”.

Question: CCCCCCC[C@H](CC(=O)O)OC(=O)C[C@@H](CCCCCCC)O[C@@H]1O[C@@H](C)[C@H](O)[C@@H](O)[C@H]1O [Rha-C10-C10] was tested. Which “HPLC-UV of di-rhamnolipids formed by recombinant P. putida fed mono-rhamnolipids” value (RhlC) did it give?
Answer: The value was “extracellularly provided mono-rhamnolipids were converted to di-rhamnolipids by RhlC in recombinant P. putida”.
